Source: patent US8003649B2 (AstraZeneca AB, priority 2007, dated 2011)

The compounds below were run against T1, Androgen Receptor (AR) (Homo sapiens, UniProt P10275, T878A) (assay: LNCaP Androgen Receptor Down-regulation Cell Assay (immunofluorescence end point)). Settings: LNCaP prostate carcinoma cells, compound incubation 20-22 hours, 50% reduction of the AR signal; read-out: Androgen Receptor Down-regulation Assay (a) IC50/μM.
T1 construct: cell based immuno-fluorescence assay using the LNCaP prostate epithelial cell line; endogenous in cells; host or cells: LNCaP clone FGC (ATCC CRL-1740)
T1 sequence (P10275 1-920 T878A): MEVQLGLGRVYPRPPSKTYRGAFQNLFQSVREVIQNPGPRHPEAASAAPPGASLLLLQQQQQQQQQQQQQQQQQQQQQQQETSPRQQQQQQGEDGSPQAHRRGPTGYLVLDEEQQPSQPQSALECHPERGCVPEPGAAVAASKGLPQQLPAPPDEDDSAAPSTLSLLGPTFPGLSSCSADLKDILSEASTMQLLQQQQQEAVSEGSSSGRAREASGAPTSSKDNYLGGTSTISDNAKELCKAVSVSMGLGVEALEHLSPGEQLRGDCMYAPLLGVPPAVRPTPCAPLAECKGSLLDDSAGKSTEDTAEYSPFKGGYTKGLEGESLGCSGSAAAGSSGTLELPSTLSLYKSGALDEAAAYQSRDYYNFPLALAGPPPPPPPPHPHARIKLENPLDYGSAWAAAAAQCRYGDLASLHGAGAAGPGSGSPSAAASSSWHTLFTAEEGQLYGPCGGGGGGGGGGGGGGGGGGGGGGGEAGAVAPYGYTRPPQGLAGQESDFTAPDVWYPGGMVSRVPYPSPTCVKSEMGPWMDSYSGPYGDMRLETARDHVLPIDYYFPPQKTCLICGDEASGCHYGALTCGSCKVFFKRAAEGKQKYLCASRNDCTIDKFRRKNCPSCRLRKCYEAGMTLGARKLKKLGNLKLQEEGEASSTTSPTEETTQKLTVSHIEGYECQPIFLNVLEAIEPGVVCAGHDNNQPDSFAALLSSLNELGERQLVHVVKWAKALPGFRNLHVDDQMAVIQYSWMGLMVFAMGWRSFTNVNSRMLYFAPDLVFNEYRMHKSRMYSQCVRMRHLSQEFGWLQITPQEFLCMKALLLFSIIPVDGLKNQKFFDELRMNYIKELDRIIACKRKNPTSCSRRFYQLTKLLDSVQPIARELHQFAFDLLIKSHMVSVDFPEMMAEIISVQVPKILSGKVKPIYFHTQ
Assay type: cell-based
Method in brief: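 AR loss reported as IC50 from curve fits of fluorescence dose-response data, with AR immunostained and read by laser-scanning cytometry. Compound exposure was 20-22 h at 37° C in LNCaP cells grown in 5% charcoal-stripped FBS and plated overnight beforehand.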

Row | Compound | DC50
1 | Cn1cncc1CN1CCN(c2ccc3nnc(C(F)(F)F)n3n2)CC1 [Example 89, 6-[4-[(3-methylimidazol-4-yl)methyl]piperazin-1-yl]-3-(trifluoromethyl)-[1,2,4]triazolo[4,3-b]pyridazine] | 23 µM
2 | FC(F)(F)c1nnc2ccc(N3CCN(Cc4ccoc4)CC3)nn12 [Example 90, 6-[4-(furan-3-ylmethyl)piperazin-1-yl]-3-(trifluoromethyl)-[1,2,4]triazolo[4,3-b]pyridazine] | 3.2 µM
3 | FC(F)(F)c1nnc2ccc(N3CCN(Cc4c[nH]c5ccccc45)CC3)nn12 [Example 94, 6-[4-(1H-indol-3-ylmethyl)piperazin-1-yl]-3-(trifluoromethyl)-[1,2,4]triazolo[4,3-b]pyridazine] | 0.93 µM
4 | FC(F)(F)c1cccc(CN2CCN(c3ccc4nnc(C(F)(F)F)n4n3)CC2)c1 [Example 95, 3-(trifluoromethyl)-6-[4-[[3-(trifluoromethyl)phenyl]methyl]piperazin-1-yl]-[1,2,4]triazolo[4,3-b]pyridazine] | 0.67 µM
5 | Fc1cccc(CN2CCN(c3ccc4nnc(C(F)(F)F)n4n3)CC2)c1 [Example 96, 6-[4-[(3-fluorophenyl)methyl]piperazin-1-yl]-3-(trifluoromethyl)-[1,2,4]triazolo[4,3-b]pyridazine] | > 1.3 µM
6 | Cc1cc(CN2CCN(c3ccc4nnc(C(F)(F)F)n4n3)CC2)oc1C [Example 98, 6-[4-[(4,5-dimethylfuran-2-yl)methyl]piperazin-1-yl]-3-(trifluoromethyl)-[1,2,4]triazolo[4,3-b]pyridazine] | 2.3 µM
7 | FC(F)(F)c1nnc2ccc(N3CCN(CC4CCCCC4)CC3)nn12 [Example 99, 6-[4-(cyclohexylmethyl)piperazin-1-yl]-3-(trifluoromethyl)-[1,2,4]triazolo[4,3-b]pyridazine] | 2.9 µM
8 | FC1(F)Oc2ccc(CN3CCN(c4ccc5nnc(C(F)(F)F)n5n4)CC3)cc2O1 [Example 100, 6-[4-[(2,2-difluoro-1,3-benzodioxol-5-yl)methyl]piperazin-1-yl]-3-(trifluoromethyl)-[1,2,4]triazolo[4,3-b]pyridazine] | 1.8 µM
9 | FC(F)(F)c1nnc2ccc(N3CCN(Cc4cc5ccccc5[nH]4)CC3)nn12 [Example 101, 6-[4-(1H-indol-2-ylmethyl)piperazin-1-yl]-3-(trifluoromethyl)-[1,2,4]triazolo[4,3-b]pyridazine] | 1.7 µM
10 | FC(F)(F)c1nnc2ccc(N3CCN(Cc4cccc5c4OCO5)CC3)nn12 [Example 102, 6-[4-(1,3-benzodioxol-4-ylmethyl)piperazin-1-yl]-3-(trifluoromethyl)-[1,2,4]triazolo[4,3-b]pyridazine] | 2.9 µM
11 | FC(F)(F)c1nnc2ccc(N3CCN(Cc4cccc5nccnc45)CC3)nn12 [Example 103, 5-[[4-[3-(trifluoromethyl)[1,2,4]triazolo[4,3-b]pyridazin-6-yl]piperazin-1-yl]methyl]quinoxaline] | 6.2 µM
12 | FC(F)(F)c1nnc2ccc(N3CCN(Cc4cc[nH]c4)CC3)nn12 [Example 104, 6-[4-(1H-pyrrol-3-ylmethyl)piperazin-1-yl]-3-(trifluoromethyl)-[1,2,4]triazolo[4,3-b]pyridazine] | 9.5 µM
13 | Cc1ccc(Oc2cccc(CN3CCN(c4ccc5nnc(C(F)(F)F)n5n4)CC3)c2)cc1 [Example 105, 6-[4-[[3-(4-methylphenoxy)phenyl]methyl]piperazin-1-yl]-3-(trifluoromethyl)-[1,2,4]triazolo[4,3-b]pyridazine] | 3.2 µM
14 | CCCCOc1ccc(CN2CCN(c3ccc4nnc(C(F)(F)F)n4n3)CC2)cc1 [Example 109, 6-[4-[(4-butoxyphenyl)methyl]piperazin-1-yl]-3-(trifluoromethyl)-[1,2,4]triazolo[4,3-b]pyridazine] | 7.2 µM
15 | FC(F)(F)c1nnc2ccc(N3CCN(Cc4ccc(N5CCCC5)cc4)CC3)nn12 [Example 113, 6-[4-[(4-pyrrolidin-1-ylphenyl)methyl]piperazin-1-yl]-3-(trifluoromethyl)-[1,2,4]triazolo[4,3-b]pyridazine] | 7.1 µM
16 | FC(F)(F)Sc1cccc(CN2CCN(c3ccc4nnc(C(F)(F)F)n4n3)CC2)c1 [Example 116, 3-(trifluoromethyl)-6-[4-[[3-(trifluoromethylsulfanyl)phenyl]methyl]piperazin-1-yl]-[1,2,4]triazolo[4,3-b]pyridazine] | 1.1 µM
17 | FC(F)(F)c1nnc2ccc(N3CCN(Cc4ccc(-c5cccnc5)cc4)CC3)nn12 [Example 117, 6-[4-[(4-pyridin-3-ylphenyl)methyl]piperazin-1-yl]-3-(trifluoromethyl)-[1,2,4]triazolo[4,3-b]pyridazine] | 1.7 µM
18 | FC(F)(F)c1nnc2ccc(N3CCN(Cc4cccc(Oc5ccc(Cl)cc5)c4)CC3)nn12 [Example 119, 6-[4-[[3-(4-chlorophenoxy)phenyl]methyl]piperazin-1-yl]-3-(trifluoromethyl)-[1,2,4]triazolo[4,3-b]pyridazine] | 2.2 µM
19 | COc1ccc(Oc2cccc(CN3CCN(c4ccc5nnc(C(F)(F)F)n5n4)CC3)c2)cc1 [Example 120, 6-[4-[[3-(4-methoxyphenoxy)phenyl]methyl]piperazin-1-yl]-3-(trifluoromethyl)-[1,2,4]triazolo[4,3-b]pyridazine] | 1.7 µM

Other lines, results leading:

Row | DC50 | Compound
20 | 0.36 µM | FC(F)(F)c1nnc2ccc(N3CCN(Cc4cccc(Cl)c4)CC3)nn12 [Example 97, 6-[4-[(3-chlorophenyl)methyl]piperazin-1-yl]-3-(trifluoromethyl)-[1,2,4]triazolo[4,3-b]pyridazine]
21 | 4.4 µM | CN(C)c1ccc(CN2CCN(c3ccc4nnc(C(F)(F)F)n4n3)CC2)cc1 [Example 106, N,N-dimethyl-4-[[4-[3-(trifluoromethyl)-[1,2,4]triazolo[4,3-b]pyridazin-6-yl]piperazin-1-yl]methyl]aniline]
22 | 7.2 µM | CC(=O)Nc1ccc(CN2CCN(c3ccc4nnc(C(F)(F)F)n4n3)CC2)cc1 [Example 107, N-[4-[[4-[3-(trifluoromethyl)-[1,2,4]triazolo[4,3-b]pyridazin-6-yl]piperazin-1-yl]methyl]phenyl]acetamide]
23 | 2.3 µM | CCOc1ccc(CN2CCN(c3ccc4nnc(C(F)(F)F)n4n3)CC2)cc1 [Example 108, 6-[4-[(4-ethoxyphenyl)methyl]piperazin-1-yl]-3-(trifluoromethyl)-[1,2,4]triazolo[4,3-b]pyridazine]
24 | 0.77 µM | O=[N+]([O-])c1ccc(CN2CCN(c3ccc4nnc(C(F)(F)F)n4n3)CC2)cc1 [Example 111, 6-[4-[(4-nitrophenyl)methyl]piperazin-1-yl]-3-(trifluoromethyl)-[1,2,4]triazolo[4,3-b]pyridazine]
25 | 4.7 µM | CN(C)CCCOc1ccc(CN2CCN(c3ccc4nnc(C(F)(F)F)n4n3)CC2)cc1 [Example 112, N,N-dimethyl-3-[4-[[4-[3-(trifluoromethyl)-[1,2,4]triazolo[4,3-b]pyridazin-6-yl]piperazin-1-yl]methyl]phenoxy]propan-1-amine]
26 | 6.5 µM | CC(C)(C)Oc1ccc(CN2CCN(c3ccc4nnc(C(F)(F)F)n4n3)CC2)cc1 [Example 114, 6-[4-[[4-[(2-methylpropan-2-yl)oxy]phenyl]methyl]piperazin-1-yl]-3-(trifluoromethyl)-[1,2,4]triazolo[4,3-b]pyridazine]
27 | 2.5 µM | CC(C)Oc1ccc(CN2CCN(c3ccc4nnc(C(F)(F)F)n4n3)CC2)cc1 [Example 115, 6-[4-[(4-propan-2-yloxyphenyl)methyl]piperazin-1-yl]-3-(trifluoromethyl)-[1,2,4]triazolo[4,3-b]pyridazine]
28 | 0.3 µM | FC(F)(F)c1nnc2ccc(N3CCN(Cc4cccc(Br)c4)CC3)nn12 [Example 118, 6-[4-[(3-bromophenyl)methyl]piperazin-1-yl]-3-(trifluoromethyl)-[1,2,4]triazolo[4,3-b]pyridazine]
29 | 4.8 µM | COC(=O)c1ccc(CN2CCN(c3ccc4nnc(C(F)(F)F)n4n3)CC2)cc1 [Example 121, methyl 4-[[4-[3-(trifluoromethyl)-[1,2,4]triazolo[4,3-b]pyridazin-6-yl]piperazin-1-yl]methyl]benzoate]
30 | 4.3 µM | CC(C)(C)c1ccc(CN2CCN(c3ccc4nnc(C(F)(F)F)n4n3)CC2)cc1 [Example 122, 6-[4-[(4-tert-butylphenyl)methyl]piperazin-1-yl]-3-(trifluoromethyl)-[1,2,4]triazolo[4,3-b]pyridazine]
